Columns and labels:
[1] = test system: normal NK cells expanded with K562-aAPC; experiment: percent inhibition of viability; higher = more inhibition; details: 72 h, IL-2 2.5 ng/mL
Description: (§1)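 Drug sensitivity and resistance testing on K562-aAPC-expanded normal NK cells: 5 concentrations (10-fold steps over a 10,000-fold range), 72 h at 37 °C, viability by CellTiter-Glo normalised to DMSO and benzethonium chloride controls; DSS from the fitted curve.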

DERL-7 (IL-2 2.5 ng/mL) [2] = experiment: as above; details: 72 h
IMC-1 (IL-2 20 ng/mL) [3] = experiment: as above; details: 72 h
KAI3 (IL-2 2.5 ng/mL) [4] = experiment: as above; details: 72 h
KHYG-1 (IL-2 2.5 ng/mL) [5] = experiment: as above; details: 72 h
NK-92 (IL-2 2.5 ng/mL) [6] = experiment: as above; details: 72 h
NK-YS (IL-2 2.5 ng/mL) [7] = experiment: as above; details: 72 h
NKL (IL-2 2.5 ng/mL) [8] = experiment: as above; details: 72 h
SNK-6 (IL-2 2.5 ng/mL) [9] = experiment: as above; details: 72 h
YT (IL-2 2.5 ng/mL) [10] = experiment: as above; details: 72 h
[11] = test system: normal primary NK cells, pool 1 (3 donors) (IL-2 2.5 ng/mL); experiment: as above; details: 72 h
[12] = test system: normal primary NK cells, pool 1 (3 donors), resting (IL-2 0 ng/mL); experiment: as above; details: 72 h
[13] = test system: normal primary NK cells, pool 2 (3 donors) (IL-2 2.5 ng/mL); experiment: as above; details: 72 h
[14] = test system: normal primary NK cells, pool 3 (3 donors) (IL-2 2.5 ng/mL); experiment: as above; details: 72 h
[15] = test system: normal NK cells expanded with K562-aAPC; experiment: drug sensitivity score (DSS) (DSS units); higher = more sensitive; extreme values may be limits of the assay; details: 72 h; IL-2 2.5 ng/mL
Description: as §1

DERL-7 (IL-2 2.5 ng/mL) [16] = experiment: as above; details: 72 h
IMC-1 (IL-2 20 ng/mL) [17] = experiment: as above; details: 72 h
KAI3 (IL-2 2.5 ng/mL) [18] = experiment: as above; details: 72 h
KHYG-1 (IL-2 2.5 ng/mL) [19] = experiment: as above; details: 72 h
NK-92 (IL-2 2.5 ng/mL) [20] = experiment: as above; details: 72 h
NK-YS (IL-2 2.5 ng/mL) [21] = experiment: as above; details: 72 h
NKL (IL-2 2.5 ng/mL) [22] = experiment: as above; details: 72 h
SNK-6 (IL-2 2.5 ng/mL) [23] = experiment: as above; details: 72 h
YT (IL-2 2.5 ng/mL) [24] = experiment: as above; details: 72 h
[25] = test system: normal primary NK cells, pool 1 (3 donors) (IL-2 2.5 ng/mL); experiment: as above; details: 72 h
[26] = test system: normal primary NK cells, pool 1 (3 donors), resting (IL-2 0 ng/mL); experiment: as above; details: 72 h
[27] = test system: normal primary NK cells, pool 2 (3 donors) (IL-2 2.5 ng/mL); experiment: as above; details: 72 h
[28] = test system: normal primary NK cells, pool 3 (3 donors) (IL-2 2.5 ng/mL); experiment: as above; details: 72 h

O=C1c2c(O)ccc(O)c2C(=O)c2c(NCCNCCO)ccc(NCCNCCO)c21 [Mitoxantrone] (max concentration tested 1000 nM)
percent inhibition of viability [%]
Details | 0.1 nM | 1 nM | 10 nM | 100 nM | 1000 nM
DERL-7 (IL-2 2.5 ng/mL) [2] | -0.69 | -3.99 | 7.25 | 45.4 | 81.1
IMC-1 (IL-2 20 ng/mL) [3] | -4.49 | -5.12 | 2.6 | 19.3 | 92.1
KAI3 (IL-2 2.5 ng/mL) [4] | -18.6 | -16.5 | -1.68 | 41.7 | 74.6
KHYG-1 (IL-2 2.5 ng/mL) [5] | -1.32 | 3.99 | 7.39 | 17.7 | 72.5
NK-92 (IL-2 2.5 ng/mL) [6] | -10.5 | -26.1 | -3.86 | 11.4 | 45.4
NK-YS (IL-2 2.5 ng/mL) [7] | -6.35 | -2.16 | 9.79 | 37.1 | 85.1
NKL (IL-2 2.5 ng/mL) [8] | -8.85 | 3.32 | 12 | 87 | 107
SNK-6 (IL-2 2.5 ng/mL) [9] | 15 | 22.1 | 31.1 | 20.5 | 73.1
YT (IL-2 2.5 ng/mL) [10] | -1.6 | 4.64 | 3.75 | -0.47 | 32.4
[1] | 1.76 | 1.15 | 1.38 | 19 | 62
[11] | 1.11 | -8.14 | 0.77 | -0.51 | 58.9
[12] | -14 | -28.2 | -16.5 | 24.1 | 91.4
[13] | -14.3 | -3.15 | 3.94 | 9.38 | 53.6
[14] | -18.6 | -1.63 | -2.35 | -0.69 | 45.1

Details | drug sensitivity score
DERL-7 (IL-2 2.5 ng/mL) [16] | 10
IMC-1 (IL-2 20 ng/mL) [17] | 8.2
KAI3 (IL-2 2.5 ng/mL) [18] | 9.23
KHYG-1 (IL-2 2.5 ng/mL) [19] | 6.72
NK-92 (IL-2 2.5 ng/mL) [20] | 4.12
NK-YS (IL-2 2.5 ng/mL) [21] | 8.97
NKL (IL-2 2.5 ng/mL) [22] | 17.5
SNK-6 (IL-2 2.5 ng/mL) [23] | 12.2
YT (IL-2 2.5 ng/mL) [24] | 1.43
[15] | 6.19
[25] | 3.14
[26] | 8.71
[27] | 4.44
[28] | 2.25

Cc1cc(OCc2nnc(SC3CCCC3)n2-c2cccnc2)ccc1-c1ccc(S(C)(=O)=O)cc1 [NMS-873] (max concentration tested 10000 nM)
percent inhibition of viability [%]
Details | 1 nM | 10 nM | 100 nM | 1000 nM | 10000 nM
DERL-7 (IL-2 2.5 ng/mL) [2] | 8.88 | 2.79 | 15.8 | 34.8 | 101
IMC-1 (IL-2 20 ng/mL) [3] | 2.03 | 32.2 | 95.6 | 39.2 | 101
KAI3 (IL-2 2.5 ng/mL) [4] | 3.12 | 7.92 | 11.3 | 35.3 | 105
KHYG-1 (IL-2 2.5 ng/mL) [5] | 3.36 | 6 | 38 | 65.7 | 107
NK-92 (IL-2 2.5 ng/mL) [6] | -7.23 | -12.4 | 12.5 | 70.3 | 107
NK-YS (IL-2 2.5 ng/mL) [7] | 6.01 | 11.3 | 46.8 | 84.8 | 107
NKL (IL-2 2.5 ng/mL) [8] | 11.2 | 14.7 | 26 | 52 | 106
SNK-6 (IL-2 2.5 ng/mL) [9] | 0.98 | 31.4 | 15.3 | 33.6 | 101
YT (IL-2 2.5 ng/mL) [10] | -2.33 | 20.6 | 83.1 | 56.4 | 106
[1] | 0.72 | 5.79 | 5.95 | 24.3 | 101
[11] | 6.16 | -1.92 | 22 | 43.5 | 98.7
[12] | -8.11 | -16.4 | 24.5 | 58.2 | 91.2
[13] | -5.68 | 4.07 | 30.6 | 39.7 | 97.8
[14] | -2.38 | 0.99 | 24.8 | 27 | 99.8

Details | drug sensitivity score
DERL-7 (IL-2 2.5 ng/mL) [16] | 9.55
IMC-1 (IL-2 20 ng/mL) [17] | 26.4
KAI3 (IL-2 2.5 ng/mL) [18] | 10.4
KHYG-1 (IL-2 2.5 ng/mL) [19] | 17.9
NK-92 (IL-2 2.5 ng/mL) [20] | 14.8
NK-YS (IL-2 2.5 ng/mL) [21] | 22.1
NKL (IL-2 2.5 ng/mL) [22] | 14.6
SNK-6 (IL-2 2.5 ng/mL) [23] | 9.51
YT (IL-2 2.5 ng/mL) [24] | 26.1
[15] | 9.28
[25] | 11.4
[26] | 13.7
[27] | 12.2
[28] | 8.69
